Experimental data published in patent US10900091B2, “miR-133a as a marker for colorectal cancer” (The Chinese University of Hong Kong, priority 2019, dated 2021).
Entries after “also recorded” stand apart in the source; their conditions may differ.

Assays:
GCLC = assay: Endogenous GCLC expression after miR-133a transfection (qPCR, western blot); assay type: cell-based, human
Description: (§1) Human miR-133a precursor (PM10413) was purchased from Thermo Fisher Scientific. […] Cells were transfected with miRNAs using Lipofectamine 2000 (Invitrogene). Cells transfected with miRNA were harvested 12 h to 48 h post-transfection.
(§2) Protein concentration was measured by the Bradford DC protein assay (Bio-Rad, Hercules, Calif.). 5-20 μg of protein from each sample were separated on 10% Bis-Tris-polyacrylamide gel through electrophoresis and blotted onto nitrocellulose membranes (GE Healthcare, Piscataway, N.J.). Blots were immunostained with primary antibodies at 4° C. overnight and secondary antibody at room temperature for 1 h. Protein was visualized using ECL Plus Western Blotting Detection Reagents (GE Healthcare). Independent experiments were performed at least twice.
(§3) To characterize the chemosensitizing property of miR-133a to oxaliplatin treatment, miR-133a targets that regulated the metabolism of oxaliplatin were searched for. Increased drug efflux and activation of detoxification system are two major aspects that induce Platinum-based drugs resistance (15). Previous studies indicate that ATPase Cu++ transporting beta polypeptide (ATP7B), ATP-binding cassette sub-family C member 1 (ABCC1) and γ-glutamylcysteine liganse (GCLC) regulated Platinum-based drugs efflux and detoxification (16-21). […]

human ABCC1 3′-UTR = assay: Dual-luciferase reporter assay, ABCC1 3′UTR; assay type: cell-based
Description: (§4) Wild-type or mutanted human ATP7B, ABCC1 and GCLC 3′-UTR were cloned into pMIR-REPORT vector (Thermo Fisher Scientific) at the SacI and SpeI sites, respectively. Co-transfection of reporter plasmids and miRNA in 24-well plates were carried out with lipofectamine 2000 as described by the manufacture. Per well, 195 ng luciferase report plasmid, 5 ng pRL-cytomegalovirus (CMV) vector and 15 pmole miRNA were applied. Cells were harvested 48 h post-transfection and luciferase activities were analyzed by the dual-luciferase reporter assay system (Promega, Madison, Wis.).
(§5) To characterize the chemosensitizing property of miR-133a to oxaliplatin treatment, miR-133a targets that regulated the metabolism of oxaliplatin were searched for. Increased drug efflux and activation of detoxification system are two major aspects that induce Platinum-based drugs resistance (15). Previous studies indicate that ATPase Cu++ transporting beta polypeptide (ATP7B), ATP-binding cassette sub-family C member 1 (ABCC1) and γ-glutamylcysteine liganse (GCLC) regulated Platinum-based drugs efflux and detoxification (16-21). […] Furthermore, their predicted 3′UTR binding sites, as well as their mutant form, were attached to firefly luciferase reporter gene, respectively. miR-133a repressed wild-type ATP7B, ABCC1, and GCLC-3′UTR reporter activity for about 64%, 56% and 42%, respectively (FIG. 5A, P<0.05).

ABCC1 = assay: Endogenous ABCC1 expression after miR-133a transfection (qPCR, western blot); assay type: cell-based, human
Description: as §1, §2, §3

[1] = tested on: CRC cell lines (HT29, SW1116, HCT116, HCT116p53−/−, RKO, DLD1); assay: MTT cell viability assay: oxaliplatin sensitization after ectopic miR-133a expression; assay type: cell-based, human; settings: CRC cell lines with ectopic expression of miR-133a; oxaliplatin treatment; FIG. 4
Description: as §1
After 24 h of transfection, cells were collected and seeded (500-1000/well) in a fresh 96-well plate for 5 days. Cell viability was determined using the conversion of 3-(4,5-dimethylthiazol-2-yl)-2,5-diphenyltetrazolium bromide (MTT) to formazan via mitochondrial oxidation. MTT solution was then added to each well at a final concentration of 0.2 mg/ml per well and the plates were incubated at 37° C. for another 1 h. After incubation, 200 μl of dimethyl sulfoxide was added to each well to dissolve the formazan formed and the absorbance was measured at 570 nm using a spectrophotometer. All the experiments were repeated in three independent experiments in triplicate.
To validate the role of miR-133a in oxaliplatin sensitization in vitro, miR-133a was expressed in the microsatellite stable (HT29, SW1116) and microsatellite instable CRC cell lines (HCT116, HCT116^p53−/−, RKO, DLD1), respectively. 50% inhibitory concentration (IC50) of each cell lines was calculated by means of MTT assay. Restoration of miR-133a was sufficient to result in a 1.5 to 2.9 fold sensitization to oxaliplatin treatment in all the tested cell lines (FIG. 4).

human GCLC 3′-UTR = assay: Dual-luciferase reporter assay, GCLC 3′UTR; assay type: cell-based
Description: as §4, §5

human ATP7B 3′-UTR = assay: Dual-luciferase reporter assay, ATP7B 3′UTR; assay type: cell-based
Description: as §4, §5

ATP7B = assay: Endogenous ATP7B expression after miR-133a transfection (qPCR, western blot); assay type: cell-based, human
Description: as §1, §2, §3

stage IV CRC patients = assay: Response of stage IV CRC patients to oxaliplatin-based first-line treatment (RECIST); assay type: in vivo, human; settings: 42 stage IV CRC patients, oxaliplatin-based first-line therapy
Excerpt: A cohort of 42 pairs of tumor and adjacent normal tissue FFPE blocks obtained from stage IV CRC patients who had received oxaliplatin-based treatment as first-line therapy at Prince of Wales Hospital between 2003 and 2010, and with known clinico-oncologic outcomes were identified from the prospectively collected database. Patients were classified into responders and non-responders group according to RECIST guideline (7). Responders are defined as the patients achieving complete response (CR) and partial response (PR), and non-responder group as patients with stable disease (SD) and progressive disease (PD). Overall survival (OS) was calculated from the operation day to the date of death or the last visit with censoring. The progress free survival (PFS) during first-line chemotherapy was determined from the operation day to the first-line progression as documented by either CT scan, positron emission tomography/CT scan, or Carcinoembryonic antigen (CEA). Forty-six mCRC patients received oxaliplatin-based treatment as first-line therapy at Beijing Oncology Hospital were used as a validation cohort (BJ cohort). […]
miR-133a level was next evaluated in 42 pairs paraffin blocks of tumor and adjacent normal tissues from stage IV CRC patients who had received oxaliplatin-based treatment. […]

[2] = qPCR, HCT116 and DLD1 (also HEK293)
[3] = western blot, HCT116, DLD1 and HEK293 (293T in the source)

| Compound | GCLC mRNA level (GCLC; [2]) | GCLC protein level (GCLC; [3]) | effect on mutant ABCC1-3′UTR reporter activity (human ABCC1 3′-UTR; mutant 3′UTR) | repression of wild-type ABCC1-3′UTR reporter activity (human ABCC1 3′-UTR; wild-type 3′UTR, P<0.05) | ABCC1 mRNA level (ABCC1; [2]) | ABCC1 protein level (ABCC1; [3]) | IC50 compared with the control group [1] | effect on mutant GCLC-3′UTR reporter activity (human GCLC 3′-UTR; mutant 3′UTR) | repression of wild-type GCLC-3′UTR reporter activity (human GCLC 3′-UTR; wild-type 3′UTR, P<0.05) | effect on mutant ATP7B-3′UTR reporter activity (human ATP7B 3′-UTR; mutant 3′UTR) | repression of wild-type ATP7B-3′UTR reporter activity (human ATP7B 3′-UTR; wild-type 3′UTR, P<0.05) | ATP7B mRNA level (ATP7B; [2]) | ATP7B protein level (ATP7B; [3]) | objective response rate (stage IV CRC patients) |
| --- | --- | --- | --- | --- | --- | --- | --- | --- | --- | --- | --- | --- | --- | --- |
| hsa-miR-133a-3p (UUUGGUCCCCUUCAACCAGCUG; precursor form, further chemistry not given here; listed as Homo sapiens) [Human miR-133a precursor purchased from Thermo Fisher Scientific, transfected into cells] | significantly suppressed; also recorded: remarkably reduced; also recorded: decreased | remarkably reduced; also recorded: decreased | no inhibition effect | ~56% | significantly suppressed; also recorded: remarkably reduced; also recorded: decreased | remarkably reduced; also recorded: decreased | lower | no inhibition effect | ~42% | no inhibition effect | about 64% | significantly suppressed; also recorded: remarkably reduced; also recorded: decreased | remarkably reduced; also recorded: decreased |  |
| O=C1[O][Pt]2([NH][C@@H]3CCCC[C@H]3[NH]2)[O]C1=O [oxaliplatin, Oxaliplatin] |  |  |  |  |  |  |  |  |  |  |  |  |  | 29% |
